Source: patent US8846933B2, “N-link hydroxamic acid derivatives useful as antibacterial agents” (Pfizer Inc., priority 2009, dated 2014)

How the values were obtained:
[1] = tested on: Pseudomonas aeruginosa UI-18: Wild-type (PA-7); assay: MIC determination (CLSI), strain PA-7; format: cell-based; conditions: strain PA-7, unit assumed
Outline: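 Strain tested was P. aeruginosa UI-18, a wild-type isolate labelled PA-7. Minimum inhibitory concentrations followed CLSI dilution methodology for aerobically growing bacteria (M7-A7, M100-S18).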

[2] = tested on: Escherichia coli EC-1: VOGEL, mouse virulent; assay: MIC determination (CLSI), strain EC-1; format: cell-based; conditions: strain EC-1, unit assumed
Outline: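 The mouse-virulent VOGEL isolate of E. coli, EC-1, served as test organism. Minimum inhibitory concentration was measured by CLSI dilution methodology (M7-A7; M100-S18 standards).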

[3] = generated in the same manner as in Table 4

SMILES	PA-7 (MIC) [1, 3]	EC-1 (MIC) [2, 3]	PA-7 (MIC) [1]	EC-1 (MIC) [2]
CC(CCn1ccc(-c2ccccc2OCC(F)(F)F)cc1=O)(C(=O)NO)S(C)(=O)=O (centres unmarked) [Example 131, N-hydroxy-2-methyl-2-(methylsulfonyl)-4-{2-oxo-4-[2-(2,2,2-trifluoroethoxy)phenyl]pyridin-1(2H)-yl}butanamide]	> 64 mg/L	> 64 mg/L		
C[C@@](CCn1ccc(-c2ccc(-c3cncs3)cc2)cc1=O)(C(=O)NO)S(C)(=O)=O [Example 406, (2R)-N-hydroxy-2-methyl-2-(methylsulfonyl)-4-{2-oxo-4-[4-(1,3-thiazol-5-yl)phenyl]pyridin-1(2H)-yl}butanamide]			0.5 mg/L	0.25 mg/L
Cc1ccc(-c2ccc(-c3ccn(CC[C@](C)(C(=O)NO)S(C)(=O)=O)c(=O)c3)cc2)cn1 [Example 456, (2R)-N-hydroxy-2-methyl-4-{4-[4-(6-methylpyridin-3-yl)phenyl]-2-oxopyridin-1(2H)-yl}-2-(methylsulfonyl)butanamide]			1 mg/L	0.25 mg/L
CC(CCn1ccc(-c2c[nH]c3ccccc23)cc1=O)(C(=O)NO)S(C)(=O)=O (centres unmarked) [Example 296, N-hydroxy-4-[4-(1H-indol-3-yl)-2-oxopyridin-1(2H)-yl]-2-methyl-2-(methylsulfonyl)butanamide]			64 mg/L	64 mg/L
C[C@@](CCn1ccc(-c2ccc(CO)nc2)cc1=O)(C(=O)NO)S(C)(=O)=O [Example 418, (2R)-N-hydroxy-4-[6-(hydroxymethyl)-2′-oxo-3,4′-bipyridin-1′(2′H)-yl]-2-methyl-2-(methylsulfonyl)butanamide]			64 mg/L	> 64 mg/L
Cc1cccc(-c2ccn(CCC(C)(C(=O)NO)S(C)(=O)=O)c(=O)c2)c1C (centres unmarked) [Example 257, 4-[4-(2,3-dimethylphenyl)-2-oxopyridin-1(2H)-yl]-N-hydroxy-2-methyl-2-(methylsulfonyl)butanamide]			2 mg/L	4 mg/L
CC(CCn1ccc(-c2ccc(OCCCN3CCNC(=O)C3)cc2)cc1=O)(C(=O)NO)S(C)(=O)=O (centres unmarked) [Example 86, N-hydroxy-2-methyl-2-(methylsulfonyl)-4-[2-oxo-4-{4-[3-(3-oxopiperazin-1-yl)propoxy]phenyl}pyridin-1(2H)-yl]butanamide]	32 mg/L	16 mg/L		
C[C@@](CCn1ccc(-c2ccccc2Cl)cc1=O)(C(=O)NO)S(C)(=O)=O [Example 341, (2R)-4-[4-(2-chlorophenyl)-2-oxopyridin-1(2H)-yl]-N-hydroxy-2-methyl-2-(methylsulfonyl)butanamide]			2 mg/L	4 mg/L
C[C@@](CCn1ccc(-c2ccc3[nH]c(=O)ccc3c2)cc1=O)(C(=O)NO)S(C)(=O)=O [Example 327, (2R)-N-hydroxy-2-methyl-2-(methylsulfonyl)-4-[2-oxo-4-(2-oxo-1,2-dihydroquinolin-6-yl)pyridin-1(2H)-yl]butanamide]			> 64 mg/L	4 mg/L
Cc1cc(-c2ccn(CC[C@](C)(C(=O)NO)S(C)(=O)=O)c(=O)c2)ccc1F [Example 325, (2R)-4-[4-(4-fluoro-3-methylphenyl)-2-oxopyridin-1(2H)-yl]-N-hydroxy-2-methyl-2-(methylsulfonyl)butanamide]			0.5 mg/L	0.5 mg/L
Cc1ccc(-c2ccn(CCC(C)(C(=O)NO)S(C)(=O)=O)c(=O)c2)cc1F (centres unmarked) [Example 151, 4-[4-(3-fluoro-4-methylphenyl)-2-oxopyridin-1(2H)-yl]-N-hydroxy-2-methyl-2-(methylsulfonyl)butanamide]	2 mg/L	2 mg/L		
CCOc1ccc(-c2ccn(CCC(C)(C(=O)NO)S(C)(=O)=O)c(=O)c2)cn1 (centres unmarked) [Example 185, 4-(6-ethoxy-2′-oxo-3,4′-bipyridin-1′(2′H)-yl)-N-hydroxy-2-methyl-2-(methylsulfonyl)butanamide]			4 mg/L	2 mg/L
CC(CCn1ccc(-c2ccc(OCCCCCN3CCOCC3)cc2)cc1=O)(C(=O)NO)S(C)(=O)=O (centres unmarked) [Example 277, N-hydroxy-2-methyl-2-(methylsulfonyl)-4-[4-{4-[(5-morpholin-4-ylpentyl)oxy]phenyl}-2-oxopyridin-1(2H)-yl]butanamide]			4 mg/L	1 mg/L
CNS(=O)(=O)c1ccc(-c2ccn(CCC(C)(C(=O)NO)S(C)(=O)=O)c(=O)c2)cc1 (centres unmarked) [Example 102, N-hydroxy-2-methyl-4-[4-{4-[(methylamino)sulfonyl]phenyl}-2-oxopyridin-1(2H)-yl]-2-(methylsulfonyl)butanamide]	> 64 mg/L	> 64 mg/L		
C[C@@](CCn1ccc(-c2ccc(SCCCCO)cc2)cc1=O)(C(=O)NO)S(C)(=O)=O [Example 319]			1 mg/L	0.25 mg/L
C[C@@](CCn1ccc(-c2ccc(-c3cc(CO)no3)cc2)cc1=O)(C(=O)NO)S(C)(=O)=O [Example 408, (2R)-N-hydroxy-4-[4-{4-[3-(hydroxymethyl)isoxazol-5-yl]phenyl}-2-oxopyridin-1(2H)-yl]-2-methyl-2-(methylsulfonyl)butanamide]			8 mg/L	8 mg/L

SMILES	PA-7 (MIC) [1, 3]	EC-1 (MIC) [2, 3]	PA-7 (MIC) [1]	EC-1 (MIC) [2]
CC(CCn1ccc(-c2ccc(OCCN3CCOCC3)cc2)cc1=O)(C(=O)NO)S(C)(=O)=O (centres unmarked) [Example 94]	4 mg/L	2 mg/L		
Cc1c(OCCCCO)ccc(-c2ccn(CC[C@](C)(C(=O)NO)S(C)(=O)=O)c(=O)c2)c1F [Example 324]			2 mg/L	0.25 mg/L
CC(CCn1ccc(-c2ccc(Cl)cc2)cc1=O)(C(=O)NO)S(C)(=O)=O (centres unmarked) [Example 141, 4-[4-(4-chlorophenyl)-2-oxopyridin-1(2H)-yl]-N-hydroxy-2-methyl-2-(methylsulfonyl)butanamide]	1 mg/L	1 mg/L		
C[C@@](CCn1ccc(-c2ccc(OCC3CCN(C(=O)CO)CC3)cc2)cc1=O)(C(=O)NO)S(C)(=O)=O [Example 311, (2R)-4-[4-{4-[(1-glycoloylpiperidin-4-yl)methoxy]phenyl}-2-oxopyridin-1(2H)-yl]-N-hydroxy-2-methyl-2-(methylsulfonyl)butanamide]			4 mg/L	1 mg/L
C[C@@](CCn1ccc(-c2ccc(OCCN3CCOCC3)c(Cl)c2Cl)cc1=O)(C(=O)NO)S(C)(=O)=O [Example 304, (2R)-4-{4-[2,3-dichloro-4-(2-morpholin-4-ylethoxy)phenyl]-2-oxopyridin-1(2H)-yl}-N-hydroxy-2-methyl-2-(methylsulfonyl)butanamide]			16 mg/L	4 mg/L
CCN(CC)C(=O)c1ccc(-c2ccn(CCC(C)(C(=O)NO)S(C)(=O)=O)c(=O)c2)cc1 (centres unmarked) [Example 126, N,N-diethyl-4-{1-[4-(hydroxyamino)-3-methyl-3-(methylsulfonyl)-4-oxobutyl]-2-oxo-1,2-dihydropyridin-4-yl}benzamide]	> 64 mg/L	> 64 mg/L		
CC(CCn1ccc(-c2cccc(O)c2)cc1=O)(C(=O)NO)S(C)(=O)=O (centres unmarked) [Example 210, N-hydroxy-4-[4-(3-hydroxyphenyl)-2-oxopyridin-1(2H)-yl]-2-methyl-2-(methylsulfonyl)butanamide]			> 64 mg/L	> 64 mg/L
C[C@@](CCn1ccc(-c2ccc3c(c2)OCCCO3)cc1=O)(C(=O)NO)S(C)(=O)=O [Example 330, (2R)-4-[4-(3,4-dihydro-2H-1,5-benzodioxepin-7-yl)-2-oxopyridin-1(2H)-yl]-N-hydroxy-2-methyl-2-(methylsulfonyl)butanamide]			4 mg/L	0.5 mg/L
CCOc1ccc(-c2ccn(CC[C@](C)(C(=O)NO)S(C)(=O)=O)c(=O)c2)c(F)c1 [Example 361, (2R)-4-[4-(4-ethoxy-2-fluorophenyl)-2-oxopyridin-1(2H)-yl]-N-hydroxy-2-methyl-2-(methylsulfonyl)butanamide]			2 mg/L	0.5 mg/L
C[C@@](CCn1ccc(-c2ccc(-c3ccncn3)cc2)cc1=O)(C(=O)NO)S(C)(=O)=O [Example 400, (2R)-N-hydroxy-2-methyl-2-(methylsulfonyl)-4-[2-oxo-4-(4-pyrimidin-4-ylphenyl)pyridin-1(2H)-yl]butanamide]			2 mg/L	1 mg/L
C[C@@](CCn1ccc(-c2ccc(N3CCC(O)CC3)cc2)cc1=O)(C(=O)NO)S(C)(=O)=O [Example 329, (2R)-N-hydroxy-4-{4-[4-(4-hydroxypiperidin-1-yl)phenyl]-2-oxopyridin-1(2H)-yl}-2-methyl-2-(methylsulfonyl)butanamide]			4 mg/L	1 mg/L
Cc1cc(OCCCn2cncn2)ccc1-c1ccn(CCC(C)(C(=O)NO)S(C)(=O)=O)c(=O)c1 (centres unmarked) [Example 289, N-hydroxy-2-methyl-2-(methylsulfonyl)-4-[4-{2-methyl-4-[3-(1H-1,2,4-triazol-1-yl)propoxy]phenyl}-2-oxopyridin-1(2H)-yl]butanamide]			32 mg/L	32 mg/L
COc1ccc2ccc(-c3ccn(CCC(C)(C(=O)NO)S(C)(=O)=O)c(=O)c3)cc2c1 (centres unmarked) [Example 288, N-hydroxy-4-[4-(7-methoxy-2-naphthyl)-2-oxopyridin-1(2H)-yl]-2-methyl-2-(methylsulfonyl)butanamide]			4 mg/L	0.125 mg/L
C[C@@](CCn1ccc(-c2ccc(OC(F)(F)F)cc2)cc1=O)(C(=O)NO)S(C)(=O)=O [Example 391, (2R)-N-hydroxy-2-methyl-2-(methylsulfonyl)-4-{2-oxo-4-[4-(trifluoromethoxy)phenyl]pyridin-1(2H)-yl}butanamide]			0.5 mg/L	0.25 mg/L
CN(C)S(=O)(=O)c1cccc(-c2ccn(CCC(C)(C(=O)NO)S(C)(=O)=O)c(=O)c2)c1 (centres unmarked) [Example 148, 4-[4-{3-[(dimethylamino)sulfonyl]phenyl}-2-oxopyridin-1(2H)-yl]-N-hydroxy-2-methyl-2-(methylsulfonyl)butanamide]	> 64 mg/L	64 mg/L		
